Source: patent US12152017B2, “Ketoamide compound and preparation method, pharmaceutical composition, and use thereof” (Shanghai Institute of Materia Medica, Chinese Academy of …, priority 2018, dated 2024)
Values joined by “and” are separate entries in the source; they are usually repeats but may differ in a detail not shown here. Equal values may be shown once. Read-outs that look alike come from different tables or passages of the source.

How the values were obtained:
[1] = system: MERS-CoV pseudovirus; test: microbe, parasite or virus in culture; format: cell-based; conditions: Middle East respiratory syndrome-related coronavirus, Huh-7, read-out: MERS-CoV pseudovirus inhibitory activity IC50
[2] = Pharmacokinetic study in CD-1 mice (gavage, intravenous, intraperitoneal); format: in vivo; conditions: 20 mg/kg; for Cmax / Tmax / half-life / AUC(0-inf) / AUC(0-t) / MRT inf: male, CD-1, mouse, plasma; for AUC(0-inf): read-out: AUC INF_obs; for MRT inf: read-out: MRT INF_obs
Procedure: Nine CD-1 mice, male, weighing 18-22 g, were randomly divided into 3 groups with 3 mice in each group. The test compounds were administered by gavage, intravenously and intraperitoneally according to the following schemes.
Before the test, they were fasted for 12 hours and were allowed to drink water freely, and were fed uniformly 2 h after administration.
There were 3 animals at each time point.
The solution for gavage administration was formulated with DMSO/0.5% HPMC (5/95, v/v) into the final concentration. Intravenous and intraperitoneal administration were formulated with DMSO/PEG300/EtOH/NaCl (5/40/5/50, v/v/v). Retention samples of the dosing solution (50 μL of the drug solution was taken and mixed well with 50 μL of DMSO before and after the administration) for testing.
The drug was administered according to the above dosage, the time of administration were recorded, and 20 μL of blood was collected from the mouse femoral plexus at the above set time point and placed in a heparinized test tube and centrifuged immediately at 11000 rpm for 5 min. 10 μL of plasma was immediately and accurately drawn into a centrifuge tube pre-filled with 100 μL of PK-IS solution (prepared with methanol:acetonitrile (1:1, v/v)), mixed well, and frozen to store at −20° C. for testing.

[3] = i.p. (20 mg/Kg per Table 3), individual animal
[4] = ip, i.p. (20 mg/Kg per Table 3), Mean of 3 mice
[5] = ip, i.p. (20 mg/Kg per Table 3), individual animal
[6] = ip, i.p. (20 mg/Kg per Table 3), individual animal, read-out: AUC last
[7] = po, p.o. (gavage 20 mg/Kg per Table 3), Mean of 3 mice
[8] = po, p.o. (gavage 20 mg/Kg per Table 3), Mean of 3 mice, read-out: AUC last (oral exposure)
[9] = po, p.o. (gavage 20 mg/Kg per Table 3), individual animal
[10] = p.o. (gavage 20 mg/Kg per Table 3), individual animal

Structure (SMILES) | IC50 [1] [nM] | AUC INF_obs [2, 3] | AUC last [2, 3] | C max [2, 3] | MRT INF_obs [2, 3] | T1/2 [2, 3] | Cmax [2, 4] [ng/mL] | Tmax [2, 4] [min] | half-life [2, 4] [min] | AUC(0-inf) [2, 4] [ng·h/mL] | MRT inf [2, 4] [h] | Cmax [2, 5] [ng/mL] | half-life [2, 5] [min] | AUC(0-inf) [2, 5] [ng·h/mL] | AUC(0-t) [2, 6] [ng·h/mL] | Cmax [2, 7] [ng/mL] | Tmax [2, 7] [min] | half-life [2, 7] [min] | AUC(0-inf) [2, 7] [ng·h/mL] | AUC(0-t) [2, 8] [ng·h/mL] | other results
O=C(NCc1ccccc1)C(=O)[C@H](C[C@@H]1CCNC1=O)NC(=O)[C@H](CC1CCCCC1)NC(=O)c1cc2ccccc2o1 [Example A9, N—((S)-1-(((S)-4-(benzylamino)-3,4-dione-1-((S)-2-oxopyrrolidine-3-yl)but-2-yl)amino)-3-cyclohexyl-1-oxopropan-2-yl)-benzofuran-2-carboxamide] | 1 ± 0.7 | 6825 ng·h/mL and 10574 ng·h/mL | 6786 ng·h/mL and 10138 ng·h/mL | 2859 ng/mL and 2364 ng/mL | 2.70 h and 3.19 h and 6.07 h | 3.67 h and 5.11 h | 2910 | 25.2 | 241 | 8360 | 3.99 | 3520 | 197 | 7670 | 7650 | 498 | 15 | 76.2 | 589 | 584 | T max [2, 3]: 45 min; AUC(0-t) ([2]; ip, i.p. (20 mg/Kg per Table 3), Mean of 3 mice, read-out: AUC last (exposure for intraperitoneal injection)): 8190 ng·h/mL; MRT inf [2, 7]: 1.77 h; Tmax [2, 9]: 15 min; half-life [2, 9]: 67.8 min; MRT inf [2, 9]: 1.35 h; AUC INF_obs [2, 10]: 451 ng·h/mL and 1146 ng·h/mL and 171 ng·h/mL; AUC last [2, 10]: 447 ng·h/mL and 1143 ng·h/mL and 163 ng·h/mL; C max [2, 10]: 546 ng/mL and 864 ng/mL and 84 ng/mL; MRT INF_obs [2, 10]: 1.33 h and 2.63 h; T1/2 [2, 10]: 0.91 h and 1.77 h
O=C(NCc1ccccc1)C(=O)[C@H](C[C@@H]1CCNC1=O)NC(=O)[C@H](CC1CCCCC1)NC(=O)c1ccc2ccccc2n1 [Example A42, N—((S)-1-(((S)-4-(benzylamino)-3,4-dione-1-((S)-2-oxopyrrolidine-3-yl)but-2-yl)amino)-3-cyclohexyl-1-oxopropan-2-yl)-quinoline-2-carboxamide] | 3.2 ± 0.6 | 10647 ng·h/mL and 11768 ng·h/mL | 10576 ng·h/mL and 11340 ng·h/mL | 3959 ng/mL and 5038 ng/mL | 3.41 h and 4.99 h | 3.67 h and 6.20 h | 4280 | 15 | 328 | 12000 | 4.93 | 3840 | 391 | 13700 | 13000 | 858 | 15 | 349 | 750 | 742 | Tmax [2, 5]: 15 min; MRT inf [2, 5]: 6.38 h; MRT inf [2, 7]: 2.3 h; Cmax [2, 9]: 1020 ng/mL; Tmax [2, 9]: 15 min; half-life [2, 9]: 251 min; AUC(0-inf) [2, 9]: 791 ng·h/mL; AUC(0-t) ([2]; po, p.o. (gavage 20 mg/Kg per Table 3), individual animal, read-out: AUC last): 787 ng·h/mL; MRT inf [2, 9]: 1.98 h; AUC INF_obs [2, 10]: 953 ng·h/mL and 506 ng·h/mL; AUC last [2, 10]: 945 ng·h/mL and 494 ng·h/mL; C max [2, 10]: 966 ng/mL and 588 ng/mL; MRT INF_obs [2, 10]: 2.10 h and 2.83 h; T1/2 [2, 10]: 5.52 h and 7.73 h
